Laboratory results taken from patent US10780074B2, “Compounds and uses thereof” (Sunovion Pharmaceuticals Inc., priority 2017, dated 2020).
Counter-ions that a name gives are not always drawn.

Tested on: behaviors of compound-treated mice
Experiment: Neuropharmacological Assay (SmartCube)
Format: in vivo
Settings: for minimal effective dose: Mus musculus, ip, 0.25 h, dose having 50% or more total activity in SmartCube, i.p., read-out: MED (minimal effective dose); for AD: ADHD (probability that activity matches class) / AG: analgesic (probability that activity matches class) / AX: anxiolytic (probability that activity matches class) / CE: cognitive enhancer (probability that activity matches class) / DP: anti-depressant (probability that activity matches class) / MS: mood stabilizer (probability that activity matches class) / PS: anti-psychotic (probability that activity matches class) / SD: sedative hypnotic (probability that activity matches class) / UN: uncharacterized CNS activity (probability that activity matches class): i.p. 15 min before behavioral test, most efficacious dose(s) of 3 doses
Method in brief: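 Mice dosed i.p. 15 min before testing, with compound in N-methyl-2-pyrrolidone/PEG/propylene glycol, were video-recorded and algorithmically compared with reference-drug behavioral signatures. This gave class-match probabilities (antidepressant, anxiolytic, etc.) at the most efficacious of 3 doses. MED was defined as the dose with ≥50% total activity, usually tested across 0.3–30 mpk.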

NC[C@@H]1OCc2c(-c3cccnc3)cccc21 [Compound 35, (R)-(4-(Pyridin-3-yl)-1,3-dihydroisobenzofuran-1-yl)methanamine hydrochloride]
minimal effective dose: 3 to 10 mg/kg | AD: ADHD (probability that activity matches class): ++ (5% ≤ ++ <25%) | AG: analgesic (probability that activity matches class): + (LOQ ≤ + <5%) | AX: anxiolytic (probability that activity matches class): ++ (5% ≤ ++ <25%) | CE: cognitive enhancer (probability that activity matches class): + (LOQ ≤ + <5%) | DP: anti-depressant (probability that activity matches class): ++++ (50% ≤ ++++) | MS: mood stabilizer (probability that activity matches class): + (LOQ ≤ + <5%) | PS: anti-psychotic (probability that activity matches class): + (LOQ ≤ + <5%) | SD: sedative hypnotic (probability that activity matches class): + (LOQ ≤ + <5%) | UN: uncharacterized CNS activity (probability that activity matches class): + (LOQ ≤ + <5%)

NC[C@H]1OCCc2c(-c3ccccn3)cccc21 (single isomer, unassigned) [Compound 46, hydrochloride]
minimal effective dose: 10 to 30 mg/kg | AD: ADHD (probability that activity matches class): + (LOQ ≤ + <5%) | AG: analgesic (probability that activity matches class): + (LOQ ≤ + <5%) | AX: anxiolytic (probability that activity matches class): ++ (5% ≤ ++ <25%) | CE: cognitive enhancer (probability that activity matches class): + (LOQ ≤ + <5%) | DP: anti-depressant (probability that activity matches class): ++ (5% ≤ ++ <25%) | MS: mood stabilizer (probability that activity matches class): + (LOQ ≤ + <5%) | PS: anti-psychotic (probability that activity matches class): + (LOQ ≤ + <5%) | SD: sedative hypnotic (probability that activity matches class): + (LOQ ≤ + <5%) | UN: uncharacterized CNS activity (probability that activity matches class): ++++ (50% ≤ ++++)

CNC[C@@H]1OCCc2c(-c3ccncc3)cccc21 [Compound 17, (R)—N-Methyl(5-(pyridin-4-yl)isochroman-1-yl)methanamine dihydrochloride salt]
minimal effective dose: ≤ 3 mg/kg | AD: ADHD (probability that activity matches class): ++ (5% ≤ ++ <25%) | AG: analgesic (probability that activity matches class): + (LOQ ≤ + <5%) | AX: anxiolytic (probability that activity matches class): + (LOQ ≤ + <5%) | CE: cognitive enhancer (probability that activity matches class): + (LOQ ≤ + <5%) | DP: anti-depressant (probability that activity matches class): ++++ (50% ≤ ++++) | MS: mood stabilizer (probability that activity matches class): + (LOQ ≤ + <5%) | PS: anti-psychotic (probability that activity matches class): + (LOQ ≤ + <5%) | SD: sedative hypnotic (probability that activity matches class): ++ (5% ≤ ++ <25%) | UN: uncharacterized CNS activity (probability that activity matches class): ++ (5% ≤ ++ <25%)

NC[C@H]1OCCc2cc(-c3cccnc3)ccc21 [Compound 14, hydrochloride salt]
minimal effective dose: 3 to 10 mg/kg | AD: ADHD (probability that activity matches class): + (LOQ ≤ + <5%) | AG: analgesic (probability that activity matches class): ++ (5% ≤ ++ <25%) | AX: anxiolytic (probability that activity matches class): ++ (5% ≤ ++ <25%) | CE: cognitive enhancer (probability that activity matches class): + (LOQ ≤ + <5%) | DP: anti-depressant (probability that activity matches class): ++++ (50% ≤ ++++) | MS: mood stabilizer (probability that activity matches class): + (LOQ ≤ + <5%) | PS: anti-psychotic (probability that activity matches class): + (LOQ ≤ + <5%) | SD: sedative hypnotic (probability that activity matches class): + (LOQ ≤ + <5%) | UN: uncharacterized CNS activity (probability that activity matches class): ++ (5% ≤ ++ <25%)

NC[C@@H]1OCCc2c(-c3cnccn3)cccc21 (single isomer, unassigned) [Compound 82, hydrochloride salt]
minimal effective dose: 10 to 30 mg/kg | AD: ADHD (probability that activity matches class): + (LOQ ≤ + <5%) | AG: analgesic (probability that activity matches class): + (LOQ ≤ + <5%) | AX: anxiolytic (probability that activity matches class): ++ (5% ≤ ++ <25%) | CE: cognitive enhancer (probability that activity matches class): + (LOQ ≤ + <5%) | DP: anti-depressant (probability that activity matches class): + (LOQ ≤ + <5%) | MS: mood stabilizer (probability that activity matches class): + (LOQ ≤ + <5%) | PS: anti-psychotic (probability that activity matches class): + (LOQ ≤ + <5%) | SD: sedative hypnotic (probability that activity matches class): + (LOQ ≤ + <5%) | UN: uncharacterized CNS activity (probability that activity matches class): + (LOQ ≤ + <5%)

CNC[C@@H]1OCCc2c(-c3ccno3)cccc21 [Compound 94, (R)-1-(5-(Isoxazol-5-yl)isochroman-1-yl)-N-methylmethanamine]
minimal effective dose: 10 to 30 mg/kg | AD: ADHD (probability that activity matches class): + (LOQ ≤ + <5%) | AG: analgesic (probability that activity matches class): + (LOQ ≤ + <5%) | AX: anxiolytic (probability that activity matches class): + (LOQ ≤ + <5%) | CE: cognitive enhancer (probability that activity matches class): + (LOQ ≤ + <5%) | DP: anti-depressant (probability that activity matches class): + (LOQ ≤ + <5%) | MS: mood stabilizer (probability that activity matches class): + (LOQ ≤ + <5%) | PS: anti-psychotic (probability that activity matches class): + (LOQ ≤ + <5%) | SD: sedative hypnotic (probability that activity matches class): + (LOQ ≤ + <5%) | UN: uncharacterized CNS activity (probability that activity matches class): + (LOQ ≤ + <5%)

NC[C@@H]1OCCc2c(-c3ccccc3)cccc21 (single isomer, unassigned) [Compound 130, hydrochloride salt]
minimal effective dose: 10 to 30 mg/kg | AD: ADHD (probability that activity matches class): + (LOQ ≤ + <5%) | AG: analgesic (probability that activity matches class): + (LOQ ≤ + <5%) | AX: anxiolytic (probability that activity matches class): ++ (5% ≤ ++ <25%) | CE: cognitive enhancer (probability that activity matches class): + (LOQ ≤ + <5%) | DP: anti-depressant (probability that activity matches class): ++ (5% ≤ ++ <25%) | MS: mood stabilizer (probability that activity matches class): + (LOQ ≤ + <5%) | PS: anti-psychotic (probability that activity matches class): + (LOQ ≤ + <5%) | SD: sedative hypnotic (probability that activity matches class): + (LOQ ≤ + <5%) | UN: uncharacterized CNS activity (probability that activity matches class): + (LOQ ≤ + <5%)

NC[C@@H]1OCCCc2c(-c3ccccn3)cccc21 [Compound 158, (R)-(6-(pyridin-2-yl)-1,3,4,5-tetrahydrobenzo[c]oxepin-1-yl)methanamine hydrochloride salt]
minimal effective dose: 10 to 30 mg/kg | AD: ADHD (probability that activity matches class): + (LOQ ≤ + <5%) | AG: analgesic (probability that activity matches class): + (LOQ ≤ + <5%) | AX: anxiolytic (probability that activity matches class): ++ (5% ≤ ++ <25%) | CE: cognitive enhancer (probability that activity matches class): + (LOQ ≤ + <5%) | DP: anti-depressant (probability that activity matches class): + (LOQ ≤ + <5%) | MS: mood stabilizer (probability that activity matches class): + (LOQ ≤ + <5%) | PS: anti-psychotic (probability that activity matches class): + (LOQ ≤ + <5%) | SD: sedative hypnotic (probability that activity matches class): + (LOQ ≤ + <5%) | UN: uncharacterized CNS activity (probability that activity matches class): + (LOQ ≤ + <5%)

CNC[C@H]1OCCc2cc(-c3cccnc3)ccc21 [Compound 6, (S)-N-methyl(6-(pyridin-3-yl)isochroman-1-yl)methanamine bis-hydrochloride]
minimal effective dose: 10 to 30 mg/kg | AD: ADHD (probability that activity matches class): + (LOQ ≤ + <5%) | AG: analgesic (probability that activity matches class): ++ (5% ≤ ++ <25%) | AX: anxiolytic (probability that activity matches class): ++ (5% ≤ ++ <25%) | CE: cognitive enhancer (probability that activity matches class): ++ (5% ≤ ++ <25%) | DP: anti-depressant (probability that activity matches class): +++ (25% ≤ +++ <50%) | MS: mood stabilizer (probability that activity matches class): + (LOQ ≤ + <5%) | PS: anti-psychotic (probability that activity matches class): ++ (5% ≤ ++ <25%) | SD: sedative hypnotic (probability that activity matches class): + (LOQ ≤ + <5%) | UN: uncharacterized CNS activity (probability that activity matches class): + (LOQ ≤ + <5%)

NCC1OCCc2c(-c3cncs3)cccc21 (stereo not shown) [Compound 59, (5-(Thiazol-5-yl)isochroman-1-yl)methanamine hydrochloride salt]
minimal effective dose: ≤ 3 mg/kg | AD: ADHD (probability that activity matches class): ++ (5% ≤ ++ <25%) | AG: analgesic (probability that activity matches class): ++ (5% ≤ ++ <25%) | AX: anxiolytic (probability that activity matches class): ++ (5% ≤ ++ <25%) | CE: cognitive enhancer (probability that activity matches class): + (LOQ ≤ + <5%) | DP: anti-depressant (probability that activity matches class): ++++ (50% ≤ ++++) | MS: mood stabilizer (probability that activity matches class): + (LOQ ≤ + <5%) | PS: anti-psychotic (probability that activity matches class): + (LOQ ≤ + <5%) | SD: sedative hypnotic (probability that activity matches class): +++ (25% ≤ +++ <50%) | UN: uncharacterized CNS activity (probability that activity matches class): ++ (5% ≤ ++ <25%)

NC[C@H]1OCCCc2c(-c3ccccn3)cccc21 [Compound 159, (S)-(6-(pyridin-2-yl)-1,3,4,5-tetrahydrobenzo[c]oxepin-1-yl)methanamine hydrochloride salt]
minimal effective dose: 10 to 30 mg/kg | AD: ADHD (probability that activity matches class): + (LOQ ≤ + <5%) | AG: analgesic (probability that activity matches class): + (LOQ ≤ + <5%) | AX: anxiolytic (probability that activity matches class): + (LOQ ≤ + <5%) | CE: cognitive enhancer (probability that activity matches class): + (LOQ ≤ + <5%) | DP: anti-depressant (probability that activity matches class): + (LOQ ≤ + <5%) | MS: mood stabilizer (probability that activity matches class): + (LOQ ≤ + <5%) | PS: anti-psychotic (probability that activity matches class): + (LOQ ≤ + <5%) | SD: sedative hypnotic (probability that activity matches class): + (LOQ ≤ + <5%) | UN: uncharacterized CNS activity (probability that activity matches class): + (LOQ ≤ + <5%)

CNC[C@H]1OCCc2c(-c3ccccn3)cccc21 (single isomer, unassigned) [Compound 44, hydrochloride salt]
minimal effective dose: ≤ 3 mg/kg | AD: ADHD (probability that activity matches class): + (LOQ ≤ + <5%) | AG: analgesic (probability that activity matches class): ++ (5% ≤ ++ <25%) | AX: anxiolytic (probability that activity matches class): ++ (5% ≤ ++ <25%) | CE: cognitive enhancer (probability that activity matches class): + (LOQ ≤ + <5%) | DP: anti-depressant (probability that activity matches class): ++++ (50% ≤ ++++) | MS: mood stabilizer (probability that activity matches class): + (LOQ ≤ + <5%) | PS: anti-psychotic (probability that activity matches class): + (LOQ ≤ + <5%) | SD: sedative hypnotic (probability that activity matches class): + (LOQ ≤ + <5%) | UN: uncharacterized CNS activity (probability that activity matches class): + (LOQ ≤ + <5%)

NC[C@@H]1OCCc2ccc(-c3cccnc3)cc21 (single isomer, unassigned) [Compound 11, hydrochloride]
minimal effective dose: 10 to 30 mg/kg | AD: ADHD (probability that activity matches class): + (LOQ ≤ + <5%) | AG: analgesic (probability that activity matches class): ++ (5% ≤ ++ <25%) | AX: anxiolytic (probability that activity matches class): + (LOQ ≤ + <5%) | CE: cognitive enhancer (probability that activity matches class): + (LOQ ≤ + <5%) | DP: anti-depressant (probability that activity matches class): ++++ (50% ≤ ++++) | MS: mood stabilizer (probability that activity matches class): + (LOQ ≤ + <5%) | PS: anti-psychotic (probability that activity matches class): + (LOQ ≤ + <5%) | SD: sedative hypnotic (probability that activity matches class): + (LOQ ≤ + <5%) | UN: uncharacterized CNS activity (probability that activity matches class): + (LOQ ≤ + <5%)
